Like-named read-outs stand apart in the source and are kept apart here.

As a reminder, the IC50 is the concentration needed to halve the response being measured.

Assay [1] deals with AC8 (Homo sapiens, UniProt P40145). The assay is described as follows: cAMP accumulation (HTRF) in HEK cells stably expressing AC8, stimulated with A23187. The note with it: Table 1; for IC50: HEK-AC8 cells, A23187-stimulated cAMP accumulation; for Max AC8 Inh (%): maximum inhibition of AC8. Also noted: expressed in transfected cells; host or cells: HEK cells stably expressing AC8 (HEK-AC8), hygromycin B selection. The class given is cell-based. The method, then:
(§1) The primary technology we employed to measure cAMP accumulation was a homogenous time-resolved fluorescence (HTRF) assay, the same technology utilized in the primary screen. […]
(§2) Briefly, cryopreserved cells were thawed, resuspended in optiMEM (Life Technologies), and plated in white, flat bottom, low-volume, tissue culture-treated 384 well plates (PerkinElmer, Shelton, Conn.). Plates with cells were incubated in a 37° C. humidified incubator for 1 h. Inhibitors were added and plates were incubated at room temperature for 30 min followed by the addition of AC stimulants in the presence of 500 μM IBMX. Cells were incubated at room temperature for 1 h and cAMP accumulation was measured using Cisbio's cAMP kit (Cisbio Bioassays, Bedford, Mass.) according to the manufacturer's instructions.

Assay [2] deals with AC1 (Homo sapiens, UniProt Q08828). The assay is described as follows: cAMP accumulation (HTRF) in HEK cells stably expressing AC1, stimulated with A23187. The class given is cell-based. Also noted: expressed in transfected cells; host or cells: HEK cells stably expressing AC1 (HEK-AC1), G418 selection. As for the experimental part:
The screen was carried out using HEK cells stably expressing AC1 (HEK-AC1) and cyclic AMP accumulation was stimulated using the Ca^2+ ionophore, A23187 to selectively activate AC1. […]
as §1, §2

Where [3] appears, read: Table 1, HEK-AC1 cells, A23187-stimulated cAMP accumulation, read-out: AC1 IC50.

Sequence of AC1 (Q08828 whole entry): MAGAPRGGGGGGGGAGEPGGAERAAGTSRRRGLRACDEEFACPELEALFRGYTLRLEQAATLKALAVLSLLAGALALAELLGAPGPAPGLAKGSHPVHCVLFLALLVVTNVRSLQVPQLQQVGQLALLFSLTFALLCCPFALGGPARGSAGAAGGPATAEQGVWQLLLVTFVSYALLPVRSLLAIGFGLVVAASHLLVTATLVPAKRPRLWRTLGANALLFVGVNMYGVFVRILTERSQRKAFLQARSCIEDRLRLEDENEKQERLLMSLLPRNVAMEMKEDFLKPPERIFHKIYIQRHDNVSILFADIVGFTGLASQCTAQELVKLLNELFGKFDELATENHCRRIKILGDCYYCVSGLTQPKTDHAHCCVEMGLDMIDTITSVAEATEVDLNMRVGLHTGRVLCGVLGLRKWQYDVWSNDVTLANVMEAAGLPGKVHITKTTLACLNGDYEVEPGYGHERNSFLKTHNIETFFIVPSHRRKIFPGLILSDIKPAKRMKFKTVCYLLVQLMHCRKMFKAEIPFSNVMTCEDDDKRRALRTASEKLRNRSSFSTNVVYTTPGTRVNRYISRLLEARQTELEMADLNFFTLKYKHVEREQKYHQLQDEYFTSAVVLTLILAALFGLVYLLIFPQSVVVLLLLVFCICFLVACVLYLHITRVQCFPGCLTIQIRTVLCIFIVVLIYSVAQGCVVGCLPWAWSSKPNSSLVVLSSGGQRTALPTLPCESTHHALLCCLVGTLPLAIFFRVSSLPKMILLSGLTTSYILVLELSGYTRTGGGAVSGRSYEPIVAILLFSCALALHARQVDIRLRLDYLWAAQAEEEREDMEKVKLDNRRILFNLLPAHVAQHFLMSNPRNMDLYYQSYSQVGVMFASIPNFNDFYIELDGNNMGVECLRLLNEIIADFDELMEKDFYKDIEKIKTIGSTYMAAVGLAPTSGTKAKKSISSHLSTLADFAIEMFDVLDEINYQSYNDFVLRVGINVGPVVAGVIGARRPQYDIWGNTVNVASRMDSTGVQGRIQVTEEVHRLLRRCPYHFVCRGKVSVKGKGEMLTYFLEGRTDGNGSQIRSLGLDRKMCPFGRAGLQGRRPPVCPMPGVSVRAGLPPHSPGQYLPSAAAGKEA
Sequence of AC8 (P40145 whole entry, species assumed): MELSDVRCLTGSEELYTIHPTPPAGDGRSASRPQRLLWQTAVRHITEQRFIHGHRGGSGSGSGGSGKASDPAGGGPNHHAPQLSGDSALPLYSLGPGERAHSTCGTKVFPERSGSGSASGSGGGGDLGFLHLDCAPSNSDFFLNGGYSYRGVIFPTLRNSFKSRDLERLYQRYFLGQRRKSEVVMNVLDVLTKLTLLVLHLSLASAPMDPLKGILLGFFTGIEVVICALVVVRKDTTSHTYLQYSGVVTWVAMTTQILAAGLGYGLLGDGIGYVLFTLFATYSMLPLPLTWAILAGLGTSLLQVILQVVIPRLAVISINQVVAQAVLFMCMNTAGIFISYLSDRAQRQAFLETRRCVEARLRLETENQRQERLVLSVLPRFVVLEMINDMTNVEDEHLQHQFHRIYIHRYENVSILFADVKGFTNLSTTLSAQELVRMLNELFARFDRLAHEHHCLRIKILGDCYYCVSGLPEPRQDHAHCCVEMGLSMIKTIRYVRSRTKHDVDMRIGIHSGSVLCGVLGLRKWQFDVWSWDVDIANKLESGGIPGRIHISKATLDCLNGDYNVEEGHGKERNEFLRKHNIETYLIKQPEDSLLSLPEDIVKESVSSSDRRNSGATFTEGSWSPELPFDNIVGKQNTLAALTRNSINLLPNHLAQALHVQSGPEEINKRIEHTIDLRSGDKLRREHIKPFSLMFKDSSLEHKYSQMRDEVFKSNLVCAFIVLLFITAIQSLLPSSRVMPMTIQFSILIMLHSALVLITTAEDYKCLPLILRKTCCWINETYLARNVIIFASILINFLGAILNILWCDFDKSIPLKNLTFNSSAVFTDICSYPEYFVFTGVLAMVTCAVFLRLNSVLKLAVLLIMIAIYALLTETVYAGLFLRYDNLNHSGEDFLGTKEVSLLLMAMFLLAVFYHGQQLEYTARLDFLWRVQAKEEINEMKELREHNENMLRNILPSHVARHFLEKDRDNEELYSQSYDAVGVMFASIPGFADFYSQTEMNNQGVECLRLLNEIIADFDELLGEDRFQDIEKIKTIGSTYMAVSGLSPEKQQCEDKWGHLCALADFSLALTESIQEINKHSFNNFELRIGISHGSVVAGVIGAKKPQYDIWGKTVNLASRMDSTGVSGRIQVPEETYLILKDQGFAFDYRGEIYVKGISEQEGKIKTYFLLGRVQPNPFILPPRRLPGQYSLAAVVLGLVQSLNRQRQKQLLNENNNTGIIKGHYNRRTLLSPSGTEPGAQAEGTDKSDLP

As to `CCc1cc(=O)[nH]c(-n2nc(C)cc2NC(=O)c2cccc(C(F)(F)F)c2)n1` [AC10089, N-(1-(4-ethyl-6-oxo-1,6-dihydropyrimidin-2-yl)-3-methyl-1H-pyrazol-5-yl)-3-(trifluoromethyl)benzamide], in assay [1], the IC50 is 18 µM and the “Max AC8 Inh (%)” value is recorded as 41%. For the same molecule, the 50% inhibitory concentration (IC50) in assay [2] (setting [3]) came to 0.7 µM.
As for `CCc1cc(=O)[nH]c(-n2nc(C)cc2NC(=O)c2ccco2)n1` [AC10069, N-(1-(6-ethyl-4-oxo-1,4-dihydropyrimidin-2-yl)-3-methyl-1H-pyrazol-5-yl)furan-2-carboxamide], in assay [1], the “Max AC8 Inh (%)” value is 20%. The IC50 in assay [2] (setting [3]) was 6.1 µM.
For the molecule `CCc1cc(=O)[nH]c(-n2nc(C)cc2NC(=O)c2cccc(OC)c2)n1` [AC10073, N-(1-(6-ethyl-4-oxo-1,4-dihydropyrimidin-2-yl)-3-methyl-1H-pyrazol-5-yl)-3-methoxybenzamide], the “Max AC8 Inh (%)” value in assay [1] was 5%. For the same molecule, the midpoint of inhibition in assay [2], the IC50, lay at 1 µM.
`CCc1cc(=O)[nH]c(-n2nc(C)cc2NC(=O)c2cccc(C)c2)n1` [AC10079, N-(1-(6-ethyl-4-oxo-1,4-dihydropyrimidin-2-yl)-3-methyl-1H-pyrazol-5-yl)-3-methylbenzamide]: in assay [1], half-maximal inhibition (IC50) required 27 µM and the “Max AC8 Inh (%)” value is listed as 27%. The IC50 in assay [2] came out at 0.4 µM.
In the case of `CCc1ccc(C(=O)Nc2cc(C)nn2-c2nc(CC)cc(=O)[nH]2)cc1` [AC10082, 4-ethyl-N-(1-(6-ethyl-4-oxo-1,4-dihydropyrimidin-2-yl)-3-methyl-1H-pyrazol-5-yl)benzamide], in assay [1], the 50% inhibitory concentration (IC50) was 37 µM and the “Max AC8 Inh (%)” value amounted to 19%. Further, the half-maximal inhibitory concentration (IC50) in assay [2] (setting [3]) amounted to 0.5 µM.
As to `CCc1cc(=O)[nH]c(-n2nc(C)cc2NC(=O)c2ccccc2C)n1` [AC10077, N-(1-(6-ethyl-4-oxo-1,4-dihydropyrimidin-2-yl)-3-methyl-1H-pyrazol-5-yl)-2-methylbenzamide], the “Max AC8 Inh (%)” value in assay [1] is reported as 11%. Further, the 50% inhibitory concentration (IC50) in assay [2] (setting [3]) was found to be 2.4 µM.
For `CCc1cc(=O)[nH]c(-n2nc(C)cc2NC(=O)c2ccc(Cl)cc2)n1` [AC10058, 4-chloro-N-(1-(6-ethyl-4-oxo-1,4-dihydropyrimidin-2-yl)-3-methyl-1H-pyrazol-5-yl)benzamide], in assay [1], the IC50 worked out at 9.5 µM and the “Max AC8 Inh (%)” value turned out to be 32%. Also, in assay [2] (setting [3]), the IC50 was 0.3 µM.
In the case of `CCc1cc(=O)[nH]c(-n2nc(C)cc2NC(=O)c2ccc(OC)cc2)n1` [AC10076, N-(1-(6-ethyl-4-oxo-1,4-dihydropyrimidin-2-yl)-3-methyl-1H-pyrazol-5-yl)-4-methoxybenzamide], in assay [1], the IC50 came out at 33 µM and the “Max AC8 Inh (%)” value is given as 0%.
Turning to `CCc1cc(=O)[nH]c(-n2nc(C)cc2NC(=O)c2ccc(F)cc2)n1` [AC10092, N-(1-(6-ethyl-4-oxo-1,4-dihydropyrimidin-2-yl)-3-methyl-1H-pyrazol-5-yl)-4-fluorobenzamide], in assay [1], the midpoint of inhibition, the IC50, lay at 14 µM and the “Max AC8 Inh (%)” value turned out to be 52%. Moreover, in assay [2] (setting [3]), the IC50 was 0.9 µM.
The matching figures for `CCc1cc(=O)[nH]c(-n2nc(C)cc2NC(=O)c2ccc(C)cc2)n1` [AC10080, N-(1-(6-ethyl-4-oxo-1,4-dihydropyrimidin-2-yl)-3-methyl-1H-pyrazol-5-yl)-4-methylbenzamide]: 48 µM, 27% and 0.7 µM.
`CCc1cc(=O)[nH]c(-n2nc(C)cc2NC(=O)c2ccc(OCOC)cc2)n1` [AC10071, N-(1-(6-ethyl-4-oxo-1,4-dihydropyrimidin-2-yl)-3-methyl-1H-pyrazol-5-yl)-4-(methoxymethoxy)benzamide]: the IC50 amounted to 23 µM in assay [1] and 3.2 µM in assay [2] (setting [3]).
As for `CCc1cc(=O)[nH]c(-n2nc(C)cc2NC(=O)c2ccccn2)n1` [AC10093, N-(1-(6-ethyl-4-oxo-1,4-dihydropyrimidin-2-yl)-3-methyl-1H-pyrazol-5-yl)picolinamide], in assay [1], 15 µM corresponded to half-maximal inhibition (IC50) and the “Max AC8 Inh (%)” value amounted to 46%.
Take `CCc1cc(=O)[nH]c(-n2nc(C)cc2NC(=O)c2ccccc2CC)n1` [AC10074, 2-ethyl-N-(1-(6-ethyl-4-oxo-1,4-dihydropyrimidin-2-yl)-3-methyl-1H-pyrazol-5-yl)benzamide]: the 50% inhibitory concentration (IC50) in assay [1] came out at 50 µM; in assay [2] (setting [3]), 2.8 µM. Further, the “Max AC8 Inh (%)” value in assay [1] came out at 21%.
Consider `CCc1cc(=O)[nH]c(-n2nc(C)cc2NC(=O)c2cccc(C(C)C)c2)n1` [AC10087, N-(1-(6-ethyl-4-oxo-1,4-dihydropyrimidin-2-yl)-3-methyl-1H-pyrazol-5-yl)-3-isopropylbenzamide], for which the IC50 is 24 µM in assay [1] and 0.4 µM in assay [2] (setting [3]). Moreover, in assay [1], the “Max AC8 Inh (%)” value is on record as 28%.
On to `CCc1cccc(C(=O)Nc2cc(C)nn2-c2nc(CC)cc(=O)[nH]2)c1` [AC10081, 3-ethyl-N-(1-(6-ethyl-4-oxo-1,4-dihydropyrimidin-2-yl)-3-methyl-1H-pyrazol-5-yl)benzamide], for which the “Max AC8 Inh (%)” value in assay [1] is on record as 12%. For the same molecule, the IC50 in assay [2] (setting [3]) was determined as 0.4 µM.
As to `CCc1cc(=O)[nH]c(-n2nc(C)cc2NC(=O)c2cccc(F)c2)n1` [AC10091, N-(1-(6-ethyl-4-oxo-1,4-dihydropyrimidin-2-yl)-3-methyl-1H-pyrazol-5-yl)-3-fluorobenzamide], the IC50 in assay [1] turned out to be 12 µM; in assay [2] (setting [3]), 1.2 µM. Also, the “Max AC8 Inh (%)” value in assay [1] is recorded as 55%.
The matching figures for `CCc1cc(=O)[nH]c(-n2nc(C)cc2NC(=O)c2cccc(SC)c2)n1` [AC10088, N-(1-(4-ethyl-6-oxo-1,6-dihydropyrimidin-2-yl)-3-methyl-1H-pyrazol-5-yl)-3-(methylthio)benzamide]: 9.7 µM, 0.4 µM and 52%.
For `CCc1cc(=O)[nH]c(-n2nc(C)cc2NC(=O)c2ccccc2F)n1` [AC10048, N-(1-(6-ethyl-4-oxo-1,4-dihydropyrimidin-2-yl)-3-methyl-1H-pyrazol-5-yl)-2-fluorobenzamide], the “Max AC8 Inh (%)” value in assay [1] was determined as 46%. Moreover, in assay [2] (setting [3]), the 50% inhibitory concentration (IC50) is 1.5 µM.
For `CCc1cc(=O)[nH]c(-n2nc(C)cc2NC(=O)Cc2cccc(C)c2)n1` [AC10075, N-(1-(6-ethyl-4-oxo-1,4-dihydropyrimidin-2-yl)-3-methyl-1H-pyrazol-5-yl)-2-(m-tolyl)acetamide], in assay [1], the IC50 is 50 µM and the “Max AC8 Inh (%)” value is 59%. Moreover, the IC50 in assay [2] (setting [3]) came out at 10 µM.
Take `CCc1cc(=O)[nH]c(-n2nc(C)cc2NC(=O)c2ccccc2)n1` [AC10068, N-(1-(6-ethyl-4-oxo-1,4-dihydropyrimidin-2-yl)-3-methyl-1H-pyrazol-5-yl)benzamide]: in assay [1], the “Max AC8 Inh (%)” value amounted to 0%. Also, the IC50 in assay [2] (setting [3]) was found to be 2.7 µM.
With `CCc1cc(=O)[nH]c(-n2nc(C)cc2NC(=O)c2cccc(Cl)c2)n1` [AC10090, 3-chloro-N-(1-(6-ethyl-4-oxo-1,4-dihydropyrimidin-2-yl)-3-methyl-1H-pyrazol-5-yl)benzamide], in assay [1], the IC50 was 6.9 µM and the “Max AC8 Inh (%)” value worked out at 48%. Also, the half-inhibitory concentration (IC50) in assay [2] (setting [3]) stood at 0.4 µM.

The record behind these values is US20230250084A1, “PYRAZOLYL PYRIMIDINONE COMPOUNDS AND THE USES THEREOF” (Purdue Research Foundation, priority 2019, published 2023).
